Key:
[1] = test system: Normal human skin fibroblast (NHF); experiment: Cell proliferation, MTT assay (Example 1); type: cell-based; details: fluorescence 4 hrs, 100 mM PMG as positive control, vs untreated control
Protocol: The test was performed in the procedure described below: • 1. Cell: Normal human skin fibroblast (NHF) • 2. Chemical fluorescent body: CYALUME Light shape blue, orange and red Seller: OmniGlow Japan Co., Ltd. • 3. Assay: • (1) Seeded NHF to 24 well plate with 2.0×10^4 cells/well, DMEM·10% S(+) • (2) After confluent state is observed by culturing 5 days, it was transferred to non-color and non-blood-serum DMEM. • (3) Exposed to fluorescence (4 hrs.). 100 mM PMG additive system was used as the positive control. • (4) Observed the appearance of the cell (×40) • (5) The quantitative measurement of cell proliferation was made by using MTT assay and by means of colorimetric test with wavelengths of 540 nm for measurement and 655 nm for control. The cell proliferation rate was calculated by using the formula described below, setting the untreated control as 100%. • 4. Calculation formula Cell proliferation rate=([Sample addition OD(540 nm)]−[Sample addition OD(655 nm)])/([Control OD(540 nm)]−[Control OD(655 nm)])×100

[2] = test system: Fibroblast(NHF); experiment: Fibroblast proliferation, MTT assay (Example 5); type: cell-based, human; details: PMG 100 mM (positive control); 24 hours
Protocol: (§1) • Cell:Fibroblast(NHF) • Chemical luminescence body (produced by OmniGlow Japan Co., Ltd.) • Normal type red (red fluorescent light) • High intensity orange (orange fluorescent light) • Collagen measurement kit: The amount of propeptide at the end of I type collagen C (PIP) is measured by Takara PIP kit. Assay: • (1)NHF is seeded at 2.0×10^4 to 24 well plate with DMEM·10% S(+). • (2) After confluent state is observed by culturing 5 days, it was transferred to non-color and non-blood-serum DMEM. • (3) Fluorescent light is allowed to irradiate (30 min.) by placing the chemical luminescent body in direct contact with 24 well plate. 100 mM PMG(phosphoric acid-L-magnesium ascorbate) addition system was prepared as the positive control. • (4) After 24 hours from the start of irradiation, the upper layer of the medium is recovered. • The amount of propeptide at the end of I type collagen C (PIP) is measured by Tatara PIP kit and then the calorimetric determination of cell proliferation is made by using MTT assay at observation wavelength of 540 nm and at reference wavelength of 655 nm. The cell proliferation rate is calculated by the formula below by setting the control of non-treated group as 100%. […]

[3] = test system: Fibroblast(NHF); experiment: Collagen synthesis rate, PIP kit per MTT (Example 5); type: cell-based, human; details: PMG 100 mM (positive control); per unit cell; control = 100
Protocol: as §1

[4] = test system: mouse melanoma(B16 cell); experiment: Melanin synthesis rate per unit cell (Abs 475/260 nm); type: cell-based; details: VC 1 mM addition (positive control), control = 100
Excerpt: (§2) • Cell: mouse melanoma(B16 cell) • Chemical luminescentbody: Normal type • Blue fluorescent light, orange fluorescent light, red fluorescent light, green fluorescent light, and yellow fluorescent light • High intensity type • Orange fluorescent light, red fluorescent light, and green fluorescent light (Produced by OmniGlow Japan Co., Ltd.) Assay: • 1. Seeded B16 cell to 24 well plate with […], MEM·10% S(+)·glucosamine culture medium. n=8 • 2. After culturing 5 days, it was transferred to MEM·10% S(+)·theophyline culture medium. • 3. Exposed to fluorescent light by placing the chemical luminescent body in contact with the plate for 4 hr. in the case of normal type and for 30 min. in the case of high intensity type. The control was under no exposure to fluorescent light and the positive control was in the 1 mMVC (Ascorbic acid) addition system. • 4. The cell was recovered three days after the start of exposure, dissolved into 0.1% DS normal saline solution, and then the optical density was measured at 260 nm (index of the amount of cell) and at 475 nm (index of the amount of melanin), and then the cell proliferation rate and the melanin synthesis rate per unit cell was calculated. • The B16 cell proliferation rate is shown in Table 4 and FIG. 7, and the melanin synthesis rate per unit cell is shown in Table 5 and FIG. 8. […]

[5] = test system: mouse melanoma(B16 cell); experiment: B16 cell proliferation rate (Abs 260 nm); type: cell-based; details: VC 1 mM addition (positive control); control = 100
Excerpt: as §2

phosphoric acid-L-magnesium ascorbate [PMG]
cell proliferation [1]: significantly promoted
Fibroblast proliferation rate (%) [2]: 138.2%
Collagen synthesis rate (%) [3]: 127.6%

O=C1O[C@H]([C@@H](O)CO)C(O)=C1O [VC, Ascorbic acid]
Melanin synthesis rate (%) [4]: 65.28%
B16 cell proliferation rate (%) [5]: 21.42%
